The values that follow come from US5059607A, “Imidazolyl benzisoquinolines useful as 5-HT3 receptor antagonists” (Ono-Pharmaceutical Co., Ltd., priority 1989, dated 1991).

The target in one series is T1, 5-HT3 receptor (Rattus norvegicus, UniProt P35563).
T1 construct: 5-HT3 receptor in vivo in rats; from tissue; host or cells: whole anesthetized male Wistar rat (in vivo; endogenous receptor, no preparation isolated)
T1 sequence (P35563 24-483): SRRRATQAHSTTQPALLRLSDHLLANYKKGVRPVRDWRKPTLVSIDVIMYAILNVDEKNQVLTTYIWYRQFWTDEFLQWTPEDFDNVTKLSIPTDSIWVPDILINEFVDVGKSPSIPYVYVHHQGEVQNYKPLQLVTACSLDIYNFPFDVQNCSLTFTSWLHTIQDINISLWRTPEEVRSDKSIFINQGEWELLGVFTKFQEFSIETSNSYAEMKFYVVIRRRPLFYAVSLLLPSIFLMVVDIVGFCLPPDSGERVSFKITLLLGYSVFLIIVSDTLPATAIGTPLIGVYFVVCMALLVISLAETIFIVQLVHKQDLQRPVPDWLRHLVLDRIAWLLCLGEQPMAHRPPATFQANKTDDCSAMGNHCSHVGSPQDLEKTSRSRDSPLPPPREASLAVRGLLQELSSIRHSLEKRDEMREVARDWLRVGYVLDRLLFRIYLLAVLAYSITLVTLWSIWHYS
Briefly: Antagonistic activity against 5-HT3 receptor in vivo in rats (suppression of 5-HT-induced reflex bradycardia). The following applies: urethane-anesthetized male Wister rat. The method, then:
Male Wister rat was urethane-anesthetized and fixed. Cannulas were inserted in the carotid artery and in the thigh vein as used for the recording of blood pressure and heart beat, and for the administration of the test compounds, respectively.
Several amounts of a compound of the present invention were administered from the vein or to the duodenum. 5-HT was administered rapidly to the vein, 2 mins. after administration of the compound of the present invention.

Series [1] can be described thus: Acute toxicity (LD50) in mice. The following applies: mouse, in vivo.
Where [2] appears, read: iv, 5-HT i.v. 2 mins after compound, read-out: IC50 i.v. (antagonistic activity against 5-HT3 receptor in vivo in rats).

Counter-ions that a name gives are not always drawn. Like-named read-outs stand apart in the source and are kept apart here.

Consider `COc1cc2ccccc2c2c(=O)n(Cc3nc[nH]c3C)ccc12.Cl` [1(a), 2-(5-methylimidazol-4-ylmethyl)-5-methoxy-1,2-dihydrobenz[1,2-h]isoquinolin-1-one hydrochloride], for which the ED50 on 5-HT3 receptor (setting [2]) was 2.4 µg/kg.
On the same count and under the same terms, the same measure for `Cc1[nH]cnc1Cn1ccc2cc(C)c3ccccc3c2c1=O.Cl` [1(d), 2-(5-methylimidazol-4-ylmethyl)-6-methyl-1,2-dihydrobenz[1,2-h]isoquinolin-1-one hydrochloride]: 0.89 µg/kg; for `Cc1[nH]cnc1Cn1ccc2c(C)cc3ccccc3c2c1=O` [1(e), 2-(5-methylimidazol-4-ylmethyl)-5-methyl-1,2-dihydrobenz[1,2-h]isoqionolin-1-one hydrochloride]: 1.19 µg/kg; for `Cc1[nH]cnc1Cn1ccc2cc(Br)c3ccccc3c2c1=O.Cl` [1(g), 2-(5-methylimidazol-4-ylmethyl)-6-bromo-1,2-dihydrobenz[1,2-h]isoquinolin-1-one hydrochloride]: 5.87 µg/kg.
For the compound `Cc1[nH]cnc1Cn1ccc2c(O)cc3ccccc3c2c1=O.Cl` [Example 1(f), 2-(5-methylimidazol-4-ylmethyl)-5-hydroxy-1,2-dihydrobenz[1,2-h]isoquinolin-1-one hydrochloride], the ED50 at 5-HT3 receptor (setting [2]) worked out at 0.62 µg/kg.
The term LD50 denotes the dose at which mortality reaches 50%. Consider `Cc1[nH]cnc1Cn1ccc2ccc3ccccc3c2c1=O.Cl` [Example 1, 2-(5-methylimidazol-4-yl-methyl)-1,2-dihydrobenz[1,2-h]isoquinolin-1-one hydrochloride], for which the 50% lethal dose (LD50) in series [1] (intravenous administration, read-out: acute toxicity (LD50), intravenous) is 94000 µg/kg; in series [1] (oral administration, read-out: acute toxicity (LD50), oral), over 800000 µg/kg. In addition, the ED50 came to 7.5 µg/kg at 5-HT3 receptor (i.d. (to the duodenum), read-out: ID50 i.d. (antagonistic activity against 5-HT3 receptor in vivo in rats)) and 0.29 µg/kg on 5-HT3 receptor (setting [2]).
